Experiments:
VHL [1] = biological target: T1, VHL (Homo sapiens, UniProt P40337); test: VHL nanoBRET (+ Digitonin); format: cell-based
T1 construct: expressed in transfected cells
Protocol: (§1) The VHL NanoBRET™ Target Engagement Assay analyzes the apparent affinity of test compounds for VHL in cells by competitive displacement of a VHL NanoBRET™ tracer reversibly bound to a NanoLuc® VHL fusion protein stably expressed in the cells.
(§2) 50 nL of control compound (10 mM; parental unlabeled VHL antagonist; see structure below) and 50 nL of DMSO (negative control) were dispensed into the appropriate control wells. DMSO was backfilled to a final volume of 50 nL as required. […] Max Signal control wells consisted of DMSO only treated wells. Minimum Signal control wells contained of 10 uM parental unlabeled VHL antagonist (control compound—see structure below). […] Background Signal control wells were prepared without tracer for background correction steps.
(§3) The raw BRET ratio values were calculated by dividing the acceptor emission value (610 nm) by the donor emission value (460 nm) for each sample. To correct for background, the BRET ratio in the absence of tracer (average of no-tracer control samples) was subtracted from the BRET ratio of each sample. Raw BRET units were converted to milliBRET units (mBU) by multiplying each raw BRET value by 1,000. The normalized NanoBRET™ signal was calculated relative to the Max Signal control wells (DMSO treated control wells) and the Minimum Signal control wells. Percentage inhibition was calculated relative to the Minimum Signal control and Maximum Signal control wells. IC50 values were derived by four parameter curve fitting using the Robust method.

VHL [2] = biological target: T1, VHL; test: VHL HEK-293 BRET Assay (VHL NanoBRET Target Engagement Assay); format: cell-based; conditions: for IC50: HEK 293 RT VHL-NanoLuc stable cells, 1 uM tracer, 2 hours, geometric mean where more than one measurement, read-out: VHL binding in cells (HEK293 nanoBRET); for Ratio cell permeability shift: ratio not defined
Protocol: as §1, §2, §3

VHL Elongin B/C complex = biological target: T2, VHL Elongin B/C complex (Homo sapiens, UniProt P40337); test: Fluorescence Polarization (FP) VHL Binding Assay; conditions: fluorescence polarization tracer competition; geometric mean where more than one measurement
T2 construct: amino acids E55-D213 of human VHL with N-terminal His6 tag; His6 (N); TEV-protease cleavage site (N); made in house; host or cells: E. coli
T2 sequence (P40337 55-213): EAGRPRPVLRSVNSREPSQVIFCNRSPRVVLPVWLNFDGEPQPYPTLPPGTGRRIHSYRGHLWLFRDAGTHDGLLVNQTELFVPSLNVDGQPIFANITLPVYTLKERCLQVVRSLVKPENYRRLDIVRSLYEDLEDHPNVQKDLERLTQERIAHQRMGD
T2 sequence (Q15370 whole entry partner, the tested form may be a part): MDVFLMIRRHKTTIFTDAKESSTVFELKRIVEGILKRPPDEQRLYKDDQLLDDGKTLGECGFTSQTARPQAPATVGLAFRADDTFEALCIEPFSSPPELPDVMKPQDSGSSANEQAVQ
T2 sequence (Q15369 17-112 partner limits assumed): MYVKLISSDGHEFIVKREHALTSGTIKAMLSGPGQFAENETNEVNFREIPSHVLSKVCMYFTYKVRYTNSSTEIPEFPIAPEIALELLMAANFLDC
Protocol: The binding of test compounds to the VHL Elongin B/C complex was measured using a fluorescence polarization tracer competition assay. The VHL/Elongin B/C protein complex used in the assay was generated as follows. The coding region for amino acids E55-D213 of human VHL with N-terminal His6 tag with a TEV-protease cleavage site was co-expressed with Elongin B (residues M1-Q118) and Elongin C (Residues M17-C112) in E. coli. The VHL/Elongin B/C complex was purified using an affinity nickel column, anion exchange HiTrap QP HP column chromatography, and gel filtration using a Superdex 75 26/60 column. The purified VHL/Elongin B/C complex was dialyzed into formulation buffer: 20 mM Bis-Tris pH7.0, 150 mM NaCl, 1 mM DTT. A VHL fluorescence polarization probe consisted of a VHL ligand coupled to carboxytetramethylrhodamine (TAMRA); (2S,4R)—N-(2-(2-(3′,6′-bis(dimethylamino)-3-oxo-3H-spiro[isobenzofuran-1,9′-xanthene]-5-carboxamido)ethoxy)-4-(4-methylthiazol-5-yl)benzyl)-4-hydroxy-1-((R)-3-methyl-2-(3-methylisoxazol-5-yl)butanoyl)pyrrolidine-2-carboxamide. […] DMSO was dispensed into wells designated for “VHL control” (without compound) wells. The “Assay Buffer” consisted of 50 mM Tris pH 8.0, 120 mM NaCl, 0.005% Nonidet P-40, and 1% DMSO (v/v). Assay Buffer containing 5.28 μM VHL Elongin B/C complex was prepared and 5 μl dispensed using a BioRapTR (Beckman Coulter) into each well of the assay plate. Assay Buffer was also dispensed into “no VHL control” wells using the same method. A “pre-assay” fluorescence measurement was made using an Infinite® M1000 (Tecan) plate reader (Excitation 530 nm, Emission 574 nm, Bandwidth 10 nm). Assay Buffer containing 3.34 nM of the VHL FP probe was prepared in Assay Buffer and 5 μl dispensed into each well of the assay plate using a BioRapTR (Beckman Coulter). The final VHL/Elongin B/C protein concentration is 2.64 nM and the final probe concentration is 1.67 nM. Assay plates were briefly centrifuged and incubated for 1 hour at room temperature. “Post-assay” fluorescence polarization measurements were made as described for the “pre-assay” fluorescence measurement. Fluorescence polarization was calculated for each sample; taking into account the “pre-assay” fluorescence measurements and subtracting the fluorescence signal of the compound/VHL only (“pre-assay”) measurements from the “post-assay” fluorescence polarization measurements, for each plane of polarization. The data were analyzed using Genedata Screener software and normalized to the “no VHL control” and “VHL control” (without compound). IC50 values were calculated using a four parameter curve fit (Robust method).

T1 sequence (P40337 whole entry): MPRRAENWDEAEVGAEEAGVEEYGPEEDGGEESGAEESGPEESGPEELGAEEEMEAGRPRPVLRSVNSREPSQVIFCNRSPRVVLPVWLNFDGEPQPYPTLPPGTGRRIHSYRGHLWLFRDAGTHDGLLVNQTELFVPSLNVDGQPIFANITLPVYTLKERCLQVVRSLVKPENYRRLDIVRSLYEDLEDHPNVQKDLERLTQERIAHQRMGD

SMILES | EC50 (VHL [1]) [nM] | IC50 (VHL [2]) [nM] | Ratio cell permeability shift (VHL [2]) | IC50 (VHL Elongin B/C complex) [nM]
CC(C)(C)[C@@H](C(=O)N1C[C@H](O)C[C@H]1C(=O)N[C@H](Cc1ccc(-c2ccccc2)cc1)C(N)=O)n1cc(C2CC2)nn1 [Example S3, (2S,4R)—N—((R)-3-([1,1′-biphenyl]-4-yl)-1-amino-1-oxopropan-2-yl)-1-((S)-2-(4-cyclopropyl-JH-1,2,3-triazol-1-yl)-3,3-dimethylbutanoyl)-4-hydroxypyrrolidine-2-carboxamide] | 140 | 150 | 0.97 | 150
CC(=O)NCCOCc1cn([C@H](C(=O)N2C[C@H](O)C[C@H]2C(=O)N[C@H](Cc2ccc(-c3ccccc3)cc2)C(N)=O)C(C)(C)C)nn1 [Example S14, (2S,4R)—N—((R)-3-([1,1′-biphenyl]-4-yl)-1-amino-1-oxopropan-2-yl)-1-((S)-2-(4-((2-acetamidoethoxy)methyl)-1H-1,2,3-triazol-1-yl)-3,3-dimethylbutanoyl)-4-hydroxypyrrolidine-2-carboxamide] | – | 20700 | 264.37 | 80
Cc1ncsc1-c1ccc(CNC(=O)[C@@H]2C[C@@H](O)CN2C(=O)[C@@H](n2cc(C3CC3)nn2)C(C)(C)C)cc1 [Example S24, (2S,4R)-1-((S)-2-(4-cyclopropyl-1H-1,2,3-triazol-1-yl)-3,3-dimethylbutanoyl)-4-hydroxy-N-(4-(4-methylthiazol-5-yl)benzyl)pyrrolidine-2-carboxamide] | 10 | 10 | 1.22 | 10
Cc1ncsc1-c1ccc(CNC(=O)[C@@H]2C[C@@H](O)CN2C(=O)[C@@H](n2cc(Cc3ccccc3)nn2)C(C)(C)C)cc1 [Example S27, (2S,4R)-1-((S)-2-(4-benzyl-1H-1,2,3-triazol-1-yl)-3,3-dimethylbutanoyl)-4-hydroxy-N-(4-(4-methylthiazol-5-yl)benzyl)pyrrolidine-2-carboxamide] | 20 | 20 | 0.88 | 20
CC(C)(C)[C@@H](C(=O)N1C[C@H](O)C[C@H]1C(=O)NCc1ccc(-c2ccccc2F)cc1)n1cc(C2CC2)nn1 [Example S43, (2S,4R)-1-((S)-2-(4-cyclopropyl-1H-1,2,3-triazol-1-yl)-3,3-dimethylbutanoyl)-N-((2′-fluoro-[1,1′-biphenyl]-4-yl)methyl)-4-hydroxypyrrolidine-2-carboxamide] | 30 | 30 | 1.03 | –
Cc1ncsc1-c1ccc2c(c1)CCCC[C@H]2NC(=O)[C@@H]1C[C@@H](O)CN1C(=O)[C@@H](n1cc(C2CC2)nn1)C(C)(C)C [Example S44, (2S,4R)-1-((S)-2-(4-cyclopropyl-1H-1,2,3-triazol-1-yl)-3,3-dimethylbutanoyl)-4-hydroxy-N—((R)-2-(4-methylthiazol-5-yl)-6,7,8,9-tetrahydro-5H-benzo[7]annulen-5-yl)pyrrolidine-2-carboxamide] | < 5 | < 5 | – | –
Cc1ncsc1-c1ccc2c(c1)CCCC[C@@H]2NC(=O)[C@@H]1C[C@@H](O)CN1C(=O)[C@@H](n1cc(C2CC2)nn1)C(C)(C)C [Example S45, (2S,4R)-1-((S)-2-(4-cyclopropyl-1H-1,2,3-triazol-1-yl)-3,3-dimethylbutanoyl)-4-hydroxy-N—((S)-2-(4-methylthiazol-5-yl)-6,7,8,9-tetrahydro-5H-benzo[7]annulen-5-yl)pyrrolidine-2-carboxamide] | 230 | 200 | 0.86 | –
C[C@H](NC(=O)[C@@H]1C[C@@H](O)CN1C(=O)[C@@H](n1cc(C2CC2)nn1)C(C)(C)C)c1ccc(-c2ccccc2Cl)cc1 [Example S46, (2S,4R)—N—((S)-1-(2′-chloro-[1,1′-biphenyl]-4-yl)ethyl)-1-((S)-2-(4-cyclopropyl-1H-1,2,3-triazol-1-yl)-3,3-dimethylbutanoyl)-4-hydroxypyrrolidine-2-carboxamide] | 10 | 10 | 0.84 | –

From patent US20230391766A1, “1-(2-(4-CYCLOPROPYL-1H-1,2,3-TRIAZOL-1-YL)ACETYL)-4-HYDROXY-N-(BENZYL)PYRROLIDIN E-2-CARBOXAMIDE DERIVATIVES AS VHL INHIBITORS FOR THE TREATMENT OF ANEMIA AND CANCER” (Genentech, Inc., priority 2020, published 2023)
